Here are results for 7 compounds from BindingDB's records for patent US11780849 (Volastra Therapeutics, 2023).

This test concerns the target T1, Ectonucleotide pyrophosphatase/phosphodiesterase family member 1 (Homo sapiens, UniProt P22413).
T1 sequence (P22413 whole entry): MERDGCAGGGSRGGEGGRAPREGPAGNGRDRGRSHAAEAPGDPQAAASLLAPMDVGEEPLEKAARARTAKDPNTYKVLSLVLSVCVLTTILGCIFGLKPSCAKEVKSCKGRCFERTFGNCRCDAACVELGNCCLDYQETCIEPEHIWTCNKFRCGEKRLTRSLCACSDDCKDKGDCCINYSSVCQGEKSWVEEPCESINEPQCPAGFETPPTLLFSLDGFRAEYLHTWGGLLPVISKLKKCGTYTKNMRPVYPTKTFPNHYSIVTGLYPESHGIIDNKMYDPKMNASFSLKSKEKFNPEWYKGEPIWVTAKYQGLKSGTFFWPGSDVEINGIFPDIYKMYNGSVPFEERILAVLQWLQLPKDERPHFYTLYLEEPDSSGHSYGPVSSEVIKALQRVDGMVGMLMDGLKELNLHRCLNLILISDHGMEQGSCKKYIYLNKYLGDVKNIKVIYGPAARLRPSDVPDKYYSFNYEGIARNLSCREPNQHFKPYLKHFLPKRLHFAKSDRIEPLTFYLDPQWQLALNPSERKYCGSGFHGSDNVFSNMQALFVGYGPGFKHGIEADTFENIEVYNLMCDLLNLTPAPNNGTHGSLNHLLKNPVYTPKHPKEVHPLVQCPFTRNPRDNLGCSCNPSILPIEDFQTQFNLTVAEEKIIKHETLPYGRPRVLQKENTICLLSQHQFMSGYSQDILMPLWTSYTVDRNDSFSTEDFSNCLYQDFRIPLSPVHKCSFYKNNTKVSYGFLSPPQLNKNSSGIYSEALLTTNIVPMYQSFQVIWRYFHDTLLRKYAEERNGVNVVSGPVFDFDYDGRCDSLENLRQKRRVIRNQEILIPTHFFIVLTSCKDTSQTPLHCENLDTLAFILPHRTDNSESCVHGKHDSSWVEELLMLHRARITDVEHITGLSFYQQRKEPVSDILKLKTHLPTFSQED
The test can be described thus: Inhibition of ENPP1 Hydrolysis of 2′,3′-cGAMP.
Experimental: Assay 1: Test compounds were plated in a 3 dilution scheme in a 384 well plate. […] AMP Detection solution (100 μL) was added to each well, the plate centrifuged and incubated for 60 min. Luminescence was measured with an Envision plate reader, and % Inhibition was calculated for each well as: (([max−min]−[test−min])/[max−min].
For orientation: IC50 means the midpoint of a concentration-inhibition curve. For the compound `COc1cc2nccc(-c3ccc4c(c3)CN(S(C)(=N)=O)CC4)c2cc1OC` (configuration not stated) [US11780849, Compound 161], the 50% inhibitory concentration (IC50) is under 0.01 µM. `COc1cc2nccc(N3CCC(CCS(C)(=N)=O)CC3)c2cc1F` (configuration not stated) [US11780849, Compound 150] came in with a half-maximal inhibitory concentration (IC50) of under 0.01 µM. For `COc1cc2nncc(N3CCC(CCS(C)(=N)=O)CC3)c2cc1OC` (configuration not stated) [US11780849, Compound 151], the IC50 was under 0.01 µM.

In the case of `COc1cccc2c(OCc3ccc(S(C)(=N)=O)cc3)ccnc12` (configuration not stated) [US11780849, Compound 134], the 50% inhibitory concentration (IC50) is over 1 µM.

As for `COc1ccc2c(OCc3ccc(S(C)(=N)=O)cc3F)ccnc2c1` (configuration not stated) [US11780849, Compound 135], the IC50 is under 0.01 µM. The result for `COc1cc2nccc(N3CCC(CCS(C)(=N)=O)CC3)c2cc1Cl` (configuration not stated) [US11780849, Compound 141] reads under 0.01 µM. For `COc1ccc2nccc(Oc3ccc(S(C)(=N)=O)cc3)c2n1` (configuration not stated) [US11780849, Compound 130], the concentration for half-maximal inhibition (IC50) is over 1 µM.
